# Source: US8574563B2 (Bristol-Myers Squibb Company, priority 2006, dated 2013)
# Where two headings read alike, the source gives them in different places.
# Test system: HCV 1b-377-neo replicon cells
# Experiment: HCV replicon assay, HCV 1b-377-neo replicon cells (1b FRET)
# Format: cell-based, Hepatitis C virus genotype 1b
# Details: HCV 1b-377-neo replicon cells, HCV 1b genotype, read-out: EC50 range against HCV 1b (Table 2, Range)
# In short: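 FRET-based replicon assay in HCV 1b-377-neo cells, including a comparison line carrying the NS5A Y2065H mutation that confers resistance to a reference compound.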
smiles,measurement,setting,value
"CCN(CC)[C@H](CC(N)=O)C(=O)N1CCC[C@H]1c1ncc(-c2ccc(-c3ccc(-c4cnc([C@@H]5CCCN5C(=O)[C@@H](NC(=O)OC)C(C)C)[nH]4)cc3)cc2)[nH]1 [Example M89, methyl ((1S)-1-(((2S)-2-(5-(4′-(2-((2S)-1-(N^2,N^2-diethyl-D-asparaginyl)-2-pyrrolidinyl)-1H-imidazol-5-yl)-4-biphenylyl)-1H-imidazol-2-yl)-1-pyrrolidinyl)carbonyl)-2-methylpropyl)carbamate]",EC50,Hepatitis C virus,1 to 99 nM
"O=C([C@@H](c1ccccc1)N1CCCC1)N1CCC[C@H]1c1ncc(-c2ccc(-c3ccc(-c4cnc([C@@H]5CCCN5C(=O)[C@@H](c5ccccc5)N5CCCC5)[nH]4)cc3)cc2)[nH]1 [Example 17, 5,5′-(4,4′-biphenyldiyl)bis(2-((2S)-1-((2R)-2-phenyl-2-(1-pyrrolidinyl)acetyl)-2-pyrrolidinyl)-1H-imidazole)]",EC50,Hepatitis C virus,0.001 to 0.999 nM
"CCN(C)[C@@H](C(=O)N1CCC[C@H]1c1ncc(-c2ccc(-c3ccc(-c4cnc([C@@H]5CCCN5C(=O)[C@H](C)NC(=O)OC)[nH]4)cc3)cc2)[nH]1)c1ccccc1 [Example M99, methyl ((1S)-2-((2S)-2-(5-(4′-(2-((2S)-1-((2R)-2-(ethyl(methyl)amino)-2-phenylacetyl)-2-pyrrolidinyl)-1H-imidazol-5-yl)-4-biphenylyl)-1H-imidazol-2-yl)-1-pyrrolidinyl)-1-methyl-2-oxoethyl)carbamate]",EC50,Hepatitis C virus,1 to 99 nM
"COC(=O)N[C@@H](C(=O)N1CCC[C@H]1c1ncc(-c2ccc(-c3ccc(-c4cnc([C@@H]5CCCN5C(=O)Cc5cc(C)no5)[nH]4)cc3)cc2)[nH]1)c1ccccc1 [Example 84-74, methyl ((1R)-2-((2)S-2-(5-(4′-(2-((2S)-1-((3-methyl-5-isoxazolyl)acetyl)-2-pyrrolidinyl)-1H-imidazol-5-yl)-4-biphenylyl)-1H-imidazol-2-yl)-1-pyrrolidinyl)-2-oxo-1-phenylethyl)carbamate]",EC50,,0.001 to 0.999 nM
"COC(=O)N[C@H](C(=O)N1CCC[C@H]1c1ncc(-c2ccc(-c3ccc(-c4cnc([C@@H]5CCCN5C(=O)[C@H](NC(=O)OC)c5ccccc5)[nH]4)c(F)c3)cc2F)[nH]1)C(C)C [Example D60, methyl ((1S)-1-(((2S)-2-(5-(3,3′-difluoro-4′-(2-((2S)-1-((2R)-2-((methoxycarbonyl)amino)-2-phenylacetyl)-2-pyrrolidinyl)-1H-imidazol-5-yl)-4-biphenylyl)-1H-imidazol-2-yl)-1-pyrrolidinyl)carbonyl)-2-methylpropyl) carbamate]",EC50,Hepatitis C virus,0.001 to 0.999 nM
"CCN(CC)[C@@H](C(=O)N1CCC[C@H]1c1ncc(-c2ccc(-c3ccc(-c4cnc([C@@H]5CCCN5C(=O)[C@H](C)NC(=O)OC)[nH]4)cc3)cc2)[nH]1)C(C)C [Example M101, methyl ((1S)-2-((2S)-2-(5-(4′-(2-((2S)-1-(N,N-diethyl-D-valyl)-2-pyrrolidinyl)-1H-imidazol-5-yl)-4-biphenylyl)-1H-imidazol-2-yl)-1-pyrrolidinyl)-1-methyl-2-oxoethyl)carbamate]",EC50,Hepatitis C virus,100 to 999 nM
"COC(=O)N[C@H](C(=O)N1[C@@H](c2ncc(-c3ccc(-c4ccc(-c5cnc([C@H]6C[C@H]7C[C@H]7N6C(=O)[C@@H](NC(=O)OC)C(C)C)[nH]5)cc4)cc3)[nH]2)C[C@H]2C[C@H]21)C(C)C [Example M131, methyl ((1S)-1-(((1R,3R,5R)-3-(5-(4′-(2-((1R,3R,5R)-2-((2S)-2-((methoxycarbonyl)amino)-3-methylbutanoyl)-2-azabicyclo[3.1.0]hex-3-yl)-1H-imidazol-5-yl)-4-biphenylyl)-1H-imidazol-2-yl)-2-azabicyclo[3.1.0]hex-2-yl)carbonyl)-2-methylpropyl)carbamate]",EC50,Hepatitis C virus,0.001 to 0.999 nM
"O=C([C@@H](c1ccccc1)N1CCOCC1)N1CCC[C@H]1c1ncc(-c2ccc(-c3ccc(-c4cnc([C@@H]5CCCN5C(=O)[C@@H](c5ccccc5)N5CCOCC5)[nH]4)cc3)cc2)[nH]1 [Example 18, 4,4′-(4,4′-biphenyldiylbis(1H-imidazole-5,2-diyl(2S)-2,1-pyrrolidinediyl((1R)-2-oxo-1-phenyl-2,1-ethanediyl)))dimorpholine]",EC50,Hepatitis C virus,0.001 to 0.999 nM
"COC(=O)N[C@H](C(=O)N1CCC[C@H]1c1ncc(-c2ccc(-c3ccc(-c4cnc([C@@H]5CCCN5C(=O)[C@@H](Nc5ncccn5)C(C)C)[nH]4)cc3)cc2)[nH]1)C(C)C [cj-11, methyl ((1S)-2-methyl-1-(((2S)-2-(5-(4′-(2-((2S)-1-(N-2-pyrimidinyl-L-valyl)-2-pyrrolidinyl)-1H-imidazol-5-yl)-4-biphenylyl)-1H-imidazol-2-yl)-1-pyrrolidinyl)carbonyl)propyl)carbamate]",EC50,Hepatitis C virus,0.001 to 0.999 nM
"CN(C)[C@@H](C(=O)N1CCC[C@H]1c1ncc(-c2cnc(-c3cnc(-c4cnc([C@@H]5CCCN5C(=O)[C@@H](c5ccccc5)N(C)C)[nH]4)cn3)cn2)[nH]1)c1ccccc1 [Example 153c-5, (1R,1′R)-2,2′-(2,2′-bipyrazine-5,5′-diylbis(1H-imidazole-5,2-diyl(2S)-2,1-pyrrolidinediyl))bis(N,N-dimethyl-2-oxo-1-phenylethanamine)]",EC50,Hepatitis C virus,1 to 99 nM
"CC(C)[C@H](O)C(=O)N[C@@H](C)C(=O)N1CCC[C@H]1c1nc(-c2ccc(-c3ccc(-c4cnc([C@@H]5CCCN5C(=O)[C@H](C)NC(=O)[C@@H](O)C(C)C)[nH]4)cc3)cc2)c[nH]1 [Example F22, (2S)-2-hydroxy-N-((1S)-2-((2S)-2-(5-(4′-(2-((2S)-1-(N-((2S)-2-hydroxy-3-methylbutanoyl)-L-alanyl)-2-pyrrolidinyl)-1H-imidazol-4-yl)-4-biphenylyl)-1H-imidazol-2-yl)-1-pyrrolidinyl)-1-methyl-2-oxoethyl)-3-methylbutanamide]",EC50,Hepatitis C virus,100 to 999 nM
"CCN(CC)[C@@H](C(=O)N1CCC[C@H]1c1ncc(-c2ccc(-c3ccc(-c4cnc([C@@H]5CCCN5C(=O)[C@H]5CCC[C@@H]5NC(=O)OC)[nH]4)cc3)cc2)[nH]1)c1ccccc1 [cj-116, methyl ((1S,2S)-2-(((2S)-2-(5-(4′-(2-((2S)-1-((2R)-2-(diethylamino)-2-phenylacetyl)-2-pyrrolidinyl)-1H-imidazol-5-yl)-4-biphenylyl)-1H-imidazol-2-yl)-1-pyrrolidinyl)carbonyl)cyclopentyl)carbamate]",EC50,Hepatitis C virus,0.001 to 0.999 nM
"CN(C)[C@@H](C(=O)N1CCC[C@H]1c1ncc(-c2ccc(-c3ccc(-c4cnc([C@@H]5CCCN5C(=O)[C@@H](c5ccccc5)N(C)C)[nH]4)cn3)cc2)[nH]1)c1ccccc1 [Example 132, (1R)-2-((2S)-2-(5-(6-(4-(2-((2S)-1-((2R)-2-(dimethylamino)-2-phenylacetyl)-2-pyrrolidinyl)-1H-imidazol-5-yl)phenyl)-3-pyridinyl)-1H-imidazol-2-yl)-1-pyrrolidinyl)-N,N-dimethyl-2-oxo-1-phenylethanamine]",EC50,Hepatitis C virus,0.001 to 0.999 nM
"COC(=O)N[C@@H](C(=O)N1CCC[C@H]1c1ncc(-c2ccc(-c3ccc(-c4cnc([C@@H]5CCCN5C(=O)[C@@H](c5ccccc5)N5CCCCC5)[nH]4)cc3)cc2)[nH]1)c1ccccc1Cl [Example 28-3, methyl ((1R)-1-(2-chlorophenyl)-2-oxo-2-((2S)-2-(5-(4′-(2-((2S)-1-((2R)-2-phenyl-2-(1-piperidinyl)acetyl)-2-pyrrolidinyl)-1H-imidazol-5-yl)-4-biphenylyl)-1H-imidazol-2-yl)-1-pyrrolidinyl)ethyl)carbamate]",EC50,Hepatitis C virus,0.001 to 0.999 nM
"CCNC(=O)N[C@H](C(=O)N1CCC[C@H]1c1nc(-c2ccc(-c3ccc(-c4c[nH]c([C@@H]5CCCN5C(=O)[C@@H](NC(=O)NCC)C(C)C)n4)cc3)cc2)c[nH]1)C(C)C [Example F64, 1-ethyl-3-((1S)-1-(((2S)-2-(4-(4′-(2-((2S)-1-((2S)-2-((ethylcarbamoyl)amino)-3-methylbutanoyl)-2-pyrrolidinyl)-1H-imidazol-4-yl)-4-biphenylyl)-1H-imidazol-2-yl)-1-pyrrolidinyl)carbonyl)-2-methylpropyl)urea]",EC50,Hepatitis C virus,1 to 99 nM
"CCCCN[C@@H](C(=O)N1CCC[C@H]1c1nc(-c2ccc(-c3ccc(-c4cnc([C@@H]5CCCN5C(=O)[C@H](NCCCC)c5ccccc5)[nH]4)cc3)cc2)c[nH]1)c1ccccc1 [Example F17, N-((1R)-2-((2S)-2-(4-(4′-(2-((2S)-1-((2R)-2-(butylamino)-2-phenylacetyl)-2-pyrrolidinyl)-1H-imidazol-5-yl)-4-biphenylyl)-1H-imidazol-2-yl)-1-pyrrolidinyl)-2-oxo-1-phenylethyl)-1-butanamine]",EC50,Hepatitis C virus,0.001 to 0.999 nM
"COC(=O)N[C@H](C(=O)N1CCC[C@H]1c1nc(-c2ccc(-c3ccc(-c4cnc([C@@H]5CCCN5C(=O)[C@@H](NC(=O)OC)C5CCOCC5)[nH]4)cc3)cc2)c[nH]1)C1CCOCC1 [Example F38, methyl ((1S)-2-((2S)-2-(4-(4′-(2-((2S)-1-((2S)-2-((methoxycarbonyl)amino)-2-(tetrahydro-2H-pyran-4-yl)acetyl)-2-pyrrolidinyl)-1H-imidazol-5-yl)-4-biphenylyl)-1H-imidazol-2-yl)-1-pyrrolidinyl)-2-oxo-1-(tetrahydro-2H-pyran-4-yl)ethyl)carbamate]",EC50,Hepatitis C virus,0.001 to 0.999 nM
"CC(C)[C@H](O)C(=O)N1CCC[C@H]1c1ncc(-c2ccc(-c3ccc(-c4cnc([C@@H]5CCCN5C(=O)[C@@H](O)C(C)C)[nH]4)cc3)cc2)[nH]1 [LS4, (2S,2′S)-1,1′-(4,4′-biphenyldiylbis(1H-imidazole-5,2-diyl(2S)-2,1-pyrrolidinediyl))bis(3-methyl-1-oxo-2-butanol)]",EC50,Hepatitis C virus,1 to 99 nM
"CCN(CC)[C@@H](C(=O)N1CCC[C@H]1c1ncc(-c2ccc(-c3ccc(-c4cnc([C@@H]5CCCN5C(=O)C[C@@H](Cc5ccccc5)NC(=O)OC)[nH]4)cc3)cc2)[nH]1)c1ccccc1 [cj-58, methyl ((1R)-1-benzyl-3-((2S)-2-(5-(4′-(2-((2S)-1-((2R)-2-(diethylamino)-2-phenylacetyl)-2-pyrrolidinyl)-1H-imidazol-5-yl)-4-biphenylyl)-1H-imidazol-2-yl)-1-pyrrolidinyl)-3-oxopropyl)carbamate]",EC50,Hepatitis C virus,0.001 to 0.999 nM
